In data set [1] the target is T1, CB1 receptors (Rattus norvegicus, UniProt P20272). The data set can be described thus: Radioreceptor binding, [3H]-CP-55,940 displacement, rat brain membranes. Conditions: 1 nM [3H]-CP55,940. Also on record: from tissue; host or cells: whole animal (rat), central CB1 receptors of the hypothalamus. The text has this:
(§1) The receptorial binding technique allows indeed to establish if and with what affinity and specificity a determined compound binds itself to a particular receptor. To evaluate the affinity of a determined compound towards a particular receptor, a particular preparation of the tissue wherein the receptors are present is used and the tested compound is made to compete with another compound, treated so as to make it radioactive and of which the affinity for the receptor is known. […] The reading of the radioactivity present in the receptor-compound complex allows furthermore to precisely calculate the compound amount bound to the receptor. By this method it is therefore possible to rapidely identify the affinity of a new compound towards a specific receptor and thus to make predictions on its pharmacological activity. By repeating the same experimental scheme it is possible to evaluate the affinity of the compound towards other kinds of receptors and thus establish the specificity degree.
(§2) Food and water were available ad libitum.
(§3) The animals were sacrificed by cervical dislocation, the brain in toto (cerebellum excluded) and the spleen were rapidely dissected and maintained in ice.
(§4) The tissue was homogenized in 15 volumes (weight/volume) of TME buffer (50 mM Tris, 1 mM EDTA e 3 mM MgCl2, pH 7.4) by an Ultra-Turrax and centrifuged for 10 minutes at 1086×g in a centrifuge cooled at 4° C. The resulting supernatant was centrifuged at 45,000×g for 30 min at 4° C. by using a Beckman SW41 rotor and the final pellet was resuspended in 50 volumes of TME.
(§5) The obtained membranes (50-80 μg of proteins) were incubated in the presence of 1 nM di [^3H]-CP55,940 for 1 h at 30° C. in a final volume of 0.5 ml of TME buffer containing 5 mg/ml of bovine serum albumin (BSA). The non specific binding was measured in the presence of CP55,940 at the 1 μM concentration. […]
(§6) The radioactivity present in the filters was measured by a scintillator spectrophotometer (Tricarb 2100, Packard, Meridien, USA). […]

Data set [2] deals with T1, CB1 receptors. The data set can be described thus: Hypothermia test in vivo, compound alone (rectal temperature). The arrangement: from tissue; host or cells: whole animal (rat), central CB1 receptors of the hypothalamus. Conditions: i.p., doses 0.1, 0.5, 1.0, 3.0, 6.0 mg/kg, versus physiological solution (38° C.). How it is done: The test was carried out with the compound of the Example 3.1c. Aqueous samples were used wherein the compound of the Example 3.1c was dispersed in water with three drops of Tween 80. Following the above procedure, treatments were carried out with doses (mg compound/kg of body weight) respectively of 0.1; 0.5; 1.0; 3.0; 6.0.

In data set [3] the target is T2, CB2 receptors (Rattus norvegicus, UniProt Q9QZN9).
T2 construct: the brain in toto (cerebellum excluded) and the spleen were rapidely dissected; from tissue; host or cells: rat spleen membranes
T2 sequence (Q9QZN9 1-360): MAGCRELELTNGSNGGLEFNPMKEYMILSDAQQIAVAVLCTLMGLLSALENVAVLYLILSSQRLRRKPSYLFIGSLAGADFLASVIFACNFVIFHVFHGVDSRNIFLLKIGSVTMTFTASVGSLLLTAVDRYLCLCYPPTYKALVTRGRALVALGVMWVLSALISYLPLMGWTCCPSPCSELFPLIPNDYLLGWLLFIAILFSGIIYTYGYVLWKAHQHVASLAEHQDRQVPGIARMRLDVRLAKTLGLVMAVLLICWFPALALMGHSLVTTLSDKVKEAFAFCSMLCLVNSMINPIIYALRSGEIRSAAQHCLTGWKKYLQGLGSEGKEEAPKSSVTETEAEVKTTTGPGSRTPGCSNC
Put plainly: Radioreceptor binding, [3H]-CP-55,940 displacement, rat spleen membranes. Conditions: 1 nM [3H]-CP55,940.
Text: as §1, §2, §3, §4, §5, §6

T1 sequence (P20272 whole entry): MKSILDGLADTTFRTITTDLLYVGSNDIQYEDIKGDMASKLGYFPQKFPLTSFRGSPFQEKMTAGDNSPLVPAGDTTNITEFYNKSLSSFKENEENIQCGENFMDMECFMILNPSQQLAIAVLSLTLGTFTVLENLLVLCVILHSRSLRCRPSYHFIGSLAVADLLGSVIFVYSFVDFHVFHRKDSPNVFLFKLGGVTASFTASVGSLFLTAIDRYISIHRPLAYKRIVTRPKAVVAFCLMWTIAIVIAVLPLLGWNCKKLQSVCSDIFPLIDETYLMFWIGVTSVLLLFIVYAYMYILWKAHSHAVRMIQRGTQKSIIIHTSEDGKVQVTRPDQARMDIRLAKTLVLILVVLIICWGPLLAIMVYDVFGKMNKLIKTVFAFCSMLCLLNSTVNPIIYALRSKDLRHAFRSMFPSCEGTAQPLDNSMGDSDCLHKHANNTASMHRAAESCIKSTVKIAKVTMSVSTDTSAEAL

The molecule `Cc1c(C(=O)Nc2ccccc2)nn(-c2ccc(Cl)cc2Cl)c1-c1ccc(Cl)s1` yielded a melting point of 175 to 176 °C.

For the molecule `Cc1c(C(=O)NN2CCCCCC2)nn(-c2ccc(Cl)cc2Cl)c1-c1ccc(Cl)s1` [Example 3.1c, N-homopiperidinyl-5-(5-Chloro-thiophen-2-yl)-1-(2′,4′-dichloro-phenyl)-4-methyl-1H-pyrazol-3-carboxamide], the inhibitory constant (Ki) in data set [1] came out at 21 ± 1 nM; in data set [3], 270 ± 5 nM. The “effect of the compound as such on body temperature” value in data set [2] is given as “In none of the examined cases there was a reduction of the body temperature”.

The record behind these values is patent US8227620B2, “Pharmaceutical compounds” (Neuroscienze Pharmaness S.C. A.R.L., priority 2004, dated 2012).
